Laboratory results as given in US8512708B2, “GP96 derived peptides” (Compugen Ltd., priority 2008, dated 2013).

Experiments:
A549 cells = format: cell-based, human; details: 48 hours, MTT, 0.3-90 μg/ml peptide
Protocol: (§1) A549 cells were seeded at 6000 cells/well in 200 μA of media (DMEM medium+5% FBS) in a 96 well plate and incubated over-night (O.N). Cells were starved in 100 μl of serum free medium (SFM) containing 0.1% FBS, O.N. All lyophilized peptides were dissolved in H2O (prewarmed to 50° C.) and hand-stirred, giving a final concentration of 1 mg/ml. Reconstituted peptides were added in concentrations of 0.3, 1, 3, 10, 30 or 90 μg/ml and the cells were incubated for 48 hours.
(§2) Cell proliferation was measured using MTT assay as follows: 20 μl of MTT solution ((3-[4,5-Dimethyl-2-thiazolyl]-2,5-diphenyl-2H-tetrazolium bromide, Sigma Cat#M5655, lot#085k5322, 1 gr was dissolved in 200 ml H2O and filtered, giving a final concentration of 5 mg/ml) were added to each well for 4 hrs, after which the medium was vacuumed and 100 μl of DMSO were added to each well. Absorbance was measured in an ELISA reader at 492 nm. The results are shown in FIG. 8, and depicted in percent relative to untreated cells (which was defined as 100).

THP-1 cells = test: LPS-induced TNF-α secretion from THP-1 cells (ELISA); format: cell-based, human; details: LPS 100 ng/ml, 4 hours
Protocol: THP-1 cells were seeded at 2×10^5 cells/ml in 100 μl of media (RPMI-1640 medium+10% FBS) in a 96 well plates. The reconstituted peptide at final concentrations of 20, 60, 180, 540, 1620, 4860 or 14580 nM were added to the relevant wells in a volume of 100 μl and LPS at a final concentration of 100 ng/ml (Sigma, Cat # L-6529, Lot #054K4022, stock concentration of 1 mg/ml) was added to the wells in a volume of 100 μl. Plates were incubated for 4 hours and then centrifuged 5 minutes at 4000 rpm. Conditioned medium (200 μl) was transferred to new plates and kept at −20° C. The concentration of TNF-α was measured using TNF-α ELISA (R&D Systems, Human TNF-alpha Quantikine ELISA Kit, Cat # STA00C).
THP-1 cells were seeded at 2×10^5 cells/ml in 100 μl of media (RPMI-1640 medium+10% FBS) in 96 well plates. The reconstituted peptide at final concentrations of 0.3, 1, 10, 30 or 60 μg/ml were added to the relevant wells in a volume of 100 μl and LPS at a final concentration of 100 ng/ml (Sigma, Cat # L-6529, Lot #054K4022, stock concentration of 1 mg/ml) was added to the wells in a volume of 100 Plates were incubated for 4 hours and then centrifuged 5 minutes at 4000 rpm. Conditioned medium (200 μl) was transferred to new plates and kept at −20° C. The concentration of TNF-α was measured using TNF-α ELISA (R&D Systems, Human TNF-alpha Quantikine ELISA Kit, Cat # STA00C).

HCT116 = test: Proliferation of HCT116 cells (MTT assay); format: cell-based, human; details: HCT116, 48 hours, 0.003-60 μg/ml peptide
Protocol: as §1, with “Cells” for “A549 cells”, “5000” for “6000”, “μl” for “μA”, “0.003, 0.009, 0.028, 0.084, 0.25, 0.76, 2.28, 6.66, 20 and 60” for “0.3, 1, 3, 10, 30 or 90”
as §2, with “assay:” for “assay as follows:”, “nm.” for “nm. The results are shown in FIG. 8, and depicted in percent relative to untreated cells (which was defined as 100).”

MCF7 = test: Proliferation of MCF7 cells (MTT assay); format: cell-based, human; details: MCF7, 48 hours, 0.003-60 μg/ml peptide
Protocol: as §1, with “Cells” for “A549 cells”, “5000” for “6000”, “μl” for “μA”, “0.003, 0.009, 0.028, 0.084, 0.25, 0.76, 2.28, 6.66, 20 and 60” for “0.3, 1, 3, 10, 30 or 90”
as §2, with “assay:” for “assay as follows:”, “nm.” for “nm. The results are shown in FIG. 8, and depicted in percent relative to untreated cells (which was defined as 100).”

HT29 = test: Proliferation of HT29 cells (MTT assay); format: cell-based, human; details: HT29, 48 hours, 0.003-60 μg/ml peptide
Protocol: as §1, with “Cells” for “A549 cells”, “5000” for “6000”, “μl” for “μA”, “0.003, 0.009, 0.028, 0.084, 0.25, 0.76, 2.28, 6.66, 20 and 60” for “0.3, 1, 3, 10, 30 or 90”
as §2, with “assay:” for “assay as follows:”, “nm.” for “nm. The results are shown in FIG. 8, and depicted in percent relative to untreated cells (which was defined as 100).”

SW480 = test: Proliferation of SW480 cells (MTT assay); format: cell-based, human; details: SW480, 48 hours, 0.003-60 μg/ml peptide
Protocol: as §1, with “Cells” for “A549 cells”, “5000” for “6000”, “μl” for “μA”, “0.003, 0.009, 0.028, 0.084, 0.25, 0.76, 2.28, 6.66, 20 and 60” for “0.3, 1, 3, 10, 30 or 90”
as §2, with “assay:” for “assay as follows:”, “nm.” for “nm. The results are shown in FIG. 8, and depicted in percent relative to untreated cells (which was defined as 100).”

human PBMCs = test: Anti-CD3-induced cytokine release from human PBMCs (Luminex); format: cell-based; details: PBMCs treated with anti-CD3 antibody (1 μg/ml), 48 hours; peptide 30 μg/ml=6 μM (FIG. 2)
Protocol: Peptides were assayed at two concentrations (3 and 30 ug/mL) in duplicates. Cryopreserved PBMCs were drip-thaw and seeded at 1×10^4 cells/well in 140 μl of media per well. Cells were incubated for 1 hour at 37° C. at 5% CO2 and a peptide of the invention or Dexamethasone as a control, were added in 20 μl of medium. Cells were incubated for 30 minutes and anti-CD3 antibody (1 μg/ml) was added at the appropriate concentration in 40 μl of medium. Plates were incubated for 48 hours, spinned at 1200 rpm for 10 minutes and supernatants were collected and stored at −80° C. Cytokines' concentration was measured using a Luminex analyzer (IS100, Luminex Corporation) and bead-based reagents (Upstate Biotechnology).

| Compound | inhibition of proliferation, dose dependence (A549 cells) | inhibition of LPS-induced TNF-α secretion (THP-1 cells; 30 μg/ml peptide) [%] | inhibition of LPS-induced TNF-α secretion (THP-1 cells; 10 μg/ml peptide) [%] | inhibition of proliferation, dose dependence (HCT116) | inhibition of proliferation, dose dependence (MCF7) | inhibition of proliferation, dose dependence (HT29) | inhibition of proliferation, dose dependence (SW480) | decrease of IL-1α (human PBMCs) [%] | decrease of IL-1β (human PBMCs) [%] | decrease of IL-2 release (human PBMCs) [%] | decrease of IL-12p40 (human PBMCs) [%] | decrease of IL-12p70 (human PBMCs) [%] | decrease of TNFα (human PBMCs) | inhibition of GM-CSF release (human PBMCs) |
| --- | --- | --- | --- | --- | --- | --- | --- | --- | --- | --- | --- | --- | --- | --- |
| CC[C@H](C)[C@H](NC(=O)[C@H](CCCCN)NC(=O)[C@H](CCCCN)NC(=O)[C@@H](NC(=O)[C@H](CCSC)NC(=O)[C@H](CC(=O)O)NC(=O)[C@H](CC(C)C)NC(=O)[C@@H](NC(=O)[C@H](CCCCN)NC(=O)[C@H](CCCNC(=N)N)NC(=O)[C@@H](NC(=O)[C@H](CC(C)C)NC(=O)[C@H](CCCCN)NC(=O)[C@H](CCCCN)NC(=O)[C@H](CCCNC(=N)N)NC(=O)[C@@H](NC(=O)[C@@H](NC(=O)[C@H](CCCCN)NC(=O)[C@H](CC(C)C)NC(=O)[C@H](CC(C)C)NC(=O)[C@H](CCCCN)NC(=O)[C@H](Cc1c[nH]cn1)NC(=O)[C@H](CCC(N)=O)NC(=O)[C@H](CCC(N)=O)NC(=O)[C@H](CC(C)C)NC(=O)[C@@H](NC(C)=O)[C@@H](C)O)C(C)C)[C@@H](C)CC)C(C)C)[C@@H](C)O)[C@@H](C)CC)C(=O)N[C@@H](C)C(=O)N[C@@H](CC(=O)O)C(=O)N[C@@H](CC(=O)O)C(=O)N[C@@H](CCCCN)C(=O)N[C@@H](Cc1ccc(O)cc1)C(N)=O [CGEN-GP4] | dose-dependent | 100 | – | – | – | – | – | – | – | – | – | – | – | – |
| Ac-HKLLKVIRKKLVRKTLDMIKKIADDKYNDTFWKEF-NH2 [CGEN-GP5] | dose-dependent | – | 100 | dose-dependent | dose-dependent | dose-dependent | dose-dependent | – | – | – | – | – | – | – |
| IYVWSSKTETVEEPMEEEEAAKEEKEESDDEA (Ac-IYVWSSKTETVEEPMEEEEAAKEEKEESDDEA-NH2) [CGEN-GP3] | – | – | – | – | – | – | – | 30 | 60 | 70 | 40 | 70 | approximately 30% | no effect |
